Results: ChEMBL document CHEMBL4414648, “Novel Benzohydroxamate-Based Potent and Selective Histone Deacetylase 6 (HDAC6) Inhibitors Bearing a Pentaheterocyclic Scaffold: Design, Synthesis, and Biological Evaluation” (J Med Chem, 2019)

Legend:
[1] = Stability in rat plasma assessed as parent compound remaining at 100 uM after 4 hrs by LC-MS/MS analysis; assay type: ADME, cell-free; conditions: read-out: Stability
697 = experiment: Cytotoxicity against human 697 cells after 48 hrs by CellTiter 96 aqueous one solution assay; assay type: cell-based; conditions: Homo sapiens, 697, 48 h
[2] = Selectivity ratio of IC50 for C-terminal His-tagged human HDAC9 (604 to 1066 residues) expressed in baculovirus infected sf9 insect cells to IC50 for human N-terminal GST-tagged HDAC6 expressed in baculovirus infected sf9 insect cells
[3] = Selectivity ratio of IC50 for N-terminal Flag-tagged human HDAC10 (2 to 631 residues) expressed in baculovirus infected sf9 insect cells to IC50 for human N-terminal GST-tagged HDAC6 expressed in baculovirus infected sf9 insect cells
[4] = biological target: T1, Protein deacetylase HDAC6 (Homo sapiens, UniProt Q9UBN7); experiment: biochemical
T1 sequence (Q9UBN7 whole entry): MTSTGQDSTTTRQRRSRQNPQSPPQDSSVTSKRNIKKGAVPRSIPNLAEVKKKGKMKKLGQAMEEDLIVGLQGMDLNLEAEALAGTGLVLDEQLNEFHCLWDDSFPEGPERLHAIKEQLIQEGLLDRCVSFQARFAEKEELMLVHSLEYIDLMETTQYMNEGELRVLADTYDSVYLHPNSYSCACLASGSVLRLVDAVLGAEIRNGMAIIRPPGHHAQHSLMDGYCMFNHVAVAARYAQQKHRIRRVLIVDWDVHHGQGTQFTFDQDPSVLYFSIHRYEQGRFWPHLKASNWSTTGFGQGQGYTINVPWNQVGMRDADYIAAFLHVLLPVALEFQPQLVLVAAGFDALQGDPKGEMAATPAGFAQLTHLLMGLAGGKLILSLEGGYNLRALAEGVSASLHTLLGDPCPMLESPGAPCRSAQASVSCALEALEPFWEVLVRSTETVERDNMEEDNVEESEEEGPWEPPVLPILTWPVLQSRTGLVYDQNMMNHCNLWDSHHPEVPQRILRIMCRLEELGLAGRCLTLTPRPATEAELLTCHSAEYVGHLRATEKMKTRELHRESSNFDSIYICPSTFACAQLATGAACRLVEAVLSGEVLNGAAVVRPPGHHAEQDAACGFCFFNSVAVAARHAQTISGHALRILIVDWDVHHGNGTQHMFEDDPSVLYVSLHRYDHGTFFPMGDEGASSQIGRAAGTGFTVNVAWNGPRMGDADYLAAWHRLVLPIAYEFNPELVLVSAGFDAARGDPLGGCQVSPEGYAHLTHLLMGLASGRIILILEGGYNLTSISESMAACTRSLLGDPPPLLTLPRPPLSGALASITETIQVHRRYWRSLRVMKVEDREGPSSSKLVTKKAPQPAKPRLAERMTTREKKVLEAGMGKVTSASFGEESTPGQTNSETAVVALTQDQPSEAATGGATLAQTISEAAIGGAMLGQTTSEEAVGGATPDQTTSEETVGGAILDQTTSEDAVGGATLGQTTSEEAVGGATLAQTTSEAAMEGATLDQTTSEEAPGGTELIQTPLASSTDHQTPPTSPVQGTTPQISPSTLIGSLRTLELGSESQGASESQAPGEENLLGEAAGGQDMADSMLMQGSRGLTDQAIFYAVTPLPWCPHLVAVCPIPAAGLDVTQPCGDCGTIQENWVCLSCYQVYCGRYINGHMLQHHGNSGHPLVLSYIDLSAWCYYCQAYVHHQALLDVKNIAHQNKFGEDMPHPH
Description: Inhibition of recombinant full length human N-terminal GST-tagged HDAC6 expressed in baculovirus infected sf9 insect cells pretreated with compound followed by Fluor de Lys deacetylase substrate addition by fluorescence method

[5] = Stability in rat liver S9 fraction assessed as parent compound remaining at 5 uM after 90 mins in presence of NADPH by LC-MS/MS analysis; assay type: ADME, subcellular; conditions: read-out: Stability
[6] = Stability in human liver S9 fraction assessed as parent compound remaining at 5 uM after 90 mins in presence of NADPH by LC-MS/MS analysis; assay type: ADME, subcellular; conditions: read-out: Stability
[7] = Selectivity ratio of IC50 for N-terminal His-tagged human HDAC11 expressed in baculovirus expression system to IC50 for human N-terminal GST-tagged HDAC6 expressed in baculovirus infected sf9 insect cells
[8] = Selectivity ratio of IC50 for C-terminal GST-tagged human HDAC5 to IC50 for human N-terminal GST-tagged HDAC6 expressed in baculovirus infected sf9 insect cells
[9] = Selectivity ratio of IC50 for human HDAC4 expressed in baculovirus infected sf9 insect cells to IC50 for human N-terminal GST-tagged HDAC6 expressed in baculovirus infected sf9 insect cells
[10] = Stability in human plasma assessed as parent compound remaining at 100 uM after 4 hrs by LC-MS/MS analysis; assay type: ADME, cell-free; conditions: read-out: Stability
PBMC = experiment: Cytotoxicity against human PBMC cells after 72 hrs by CellTiter 96 aqueous one solution assay; assay type: cell-based
Histone deacetylase = experiment: Inhibition of HDAC in human 697 cells assessed as increase in H3 acetylation at 1000 nM incubated for 16 hrs by ELISA; assay type: cell-based; conditions: human, 697, 16 h, 1 µM
[11] = Selectivity ratio of IC50 for N-terminal GST-tagged human HDAC7 (518 to end residues) expressed in baculovirus infected sf9 insect cells to IC50 for human N-terminal GST-tagged HDAC6 expressed in baculovirus infected sf9 insect cells
[12] = Selectivity ratio of IC50 for C-terminal His-tagged human HDAC8 expressed in baculovirus infected sf9 insect cells to IC50 for human N-terminal GST-tagged HDAC6 expressed in baculovirus infected sf9 insect cells
[13] = biological target: Histone deacetylase 3/Nuclear receptor corepressor 2 (HDAC3/NCoR2) (Homo sapiens, UniProt O15379); experiment: Inhibition of C-terminal His-tagged human HDAC3 (1 to 428 residues)/N-terminal GST tagged human NCOR2 (395 to 489) expressed in baculovirus infected sf9 insect cells pretreated with compound followed by Fluor de Lys deacetylase substrate addition by fluorescence method
Sequence of Histone deacetylase 3/Nuclear receptor corepressor 2 (HDAC3/NCoR2) (O15379 whole entry, the tested form may be a part): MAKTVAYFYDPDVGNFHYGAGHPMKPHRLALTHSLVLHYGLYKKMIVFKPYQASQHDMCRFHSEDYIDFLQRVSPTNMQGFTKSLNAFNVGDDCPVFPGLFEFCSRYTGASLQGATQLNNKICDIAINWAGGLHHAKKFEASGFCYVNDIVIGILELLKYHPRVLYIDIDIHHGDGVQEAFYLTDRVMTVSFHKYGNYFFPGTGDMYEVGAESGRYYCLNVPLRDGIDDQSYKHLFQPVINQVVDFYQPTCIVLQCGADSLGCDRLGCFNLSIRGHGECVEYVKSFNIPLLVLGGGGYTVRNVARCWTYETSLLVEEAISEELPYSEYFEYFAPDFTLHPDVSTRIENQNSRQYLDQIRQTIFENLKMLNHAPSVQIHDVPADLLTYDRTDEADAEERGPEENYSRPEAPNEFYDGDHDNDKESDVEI
Sequence of Histone deacetylase 3/Nuclear receptor corepressor 2 (HDAC3/NCoR2) (Q9Y618 whole entry, further chain, the tested form may be a part): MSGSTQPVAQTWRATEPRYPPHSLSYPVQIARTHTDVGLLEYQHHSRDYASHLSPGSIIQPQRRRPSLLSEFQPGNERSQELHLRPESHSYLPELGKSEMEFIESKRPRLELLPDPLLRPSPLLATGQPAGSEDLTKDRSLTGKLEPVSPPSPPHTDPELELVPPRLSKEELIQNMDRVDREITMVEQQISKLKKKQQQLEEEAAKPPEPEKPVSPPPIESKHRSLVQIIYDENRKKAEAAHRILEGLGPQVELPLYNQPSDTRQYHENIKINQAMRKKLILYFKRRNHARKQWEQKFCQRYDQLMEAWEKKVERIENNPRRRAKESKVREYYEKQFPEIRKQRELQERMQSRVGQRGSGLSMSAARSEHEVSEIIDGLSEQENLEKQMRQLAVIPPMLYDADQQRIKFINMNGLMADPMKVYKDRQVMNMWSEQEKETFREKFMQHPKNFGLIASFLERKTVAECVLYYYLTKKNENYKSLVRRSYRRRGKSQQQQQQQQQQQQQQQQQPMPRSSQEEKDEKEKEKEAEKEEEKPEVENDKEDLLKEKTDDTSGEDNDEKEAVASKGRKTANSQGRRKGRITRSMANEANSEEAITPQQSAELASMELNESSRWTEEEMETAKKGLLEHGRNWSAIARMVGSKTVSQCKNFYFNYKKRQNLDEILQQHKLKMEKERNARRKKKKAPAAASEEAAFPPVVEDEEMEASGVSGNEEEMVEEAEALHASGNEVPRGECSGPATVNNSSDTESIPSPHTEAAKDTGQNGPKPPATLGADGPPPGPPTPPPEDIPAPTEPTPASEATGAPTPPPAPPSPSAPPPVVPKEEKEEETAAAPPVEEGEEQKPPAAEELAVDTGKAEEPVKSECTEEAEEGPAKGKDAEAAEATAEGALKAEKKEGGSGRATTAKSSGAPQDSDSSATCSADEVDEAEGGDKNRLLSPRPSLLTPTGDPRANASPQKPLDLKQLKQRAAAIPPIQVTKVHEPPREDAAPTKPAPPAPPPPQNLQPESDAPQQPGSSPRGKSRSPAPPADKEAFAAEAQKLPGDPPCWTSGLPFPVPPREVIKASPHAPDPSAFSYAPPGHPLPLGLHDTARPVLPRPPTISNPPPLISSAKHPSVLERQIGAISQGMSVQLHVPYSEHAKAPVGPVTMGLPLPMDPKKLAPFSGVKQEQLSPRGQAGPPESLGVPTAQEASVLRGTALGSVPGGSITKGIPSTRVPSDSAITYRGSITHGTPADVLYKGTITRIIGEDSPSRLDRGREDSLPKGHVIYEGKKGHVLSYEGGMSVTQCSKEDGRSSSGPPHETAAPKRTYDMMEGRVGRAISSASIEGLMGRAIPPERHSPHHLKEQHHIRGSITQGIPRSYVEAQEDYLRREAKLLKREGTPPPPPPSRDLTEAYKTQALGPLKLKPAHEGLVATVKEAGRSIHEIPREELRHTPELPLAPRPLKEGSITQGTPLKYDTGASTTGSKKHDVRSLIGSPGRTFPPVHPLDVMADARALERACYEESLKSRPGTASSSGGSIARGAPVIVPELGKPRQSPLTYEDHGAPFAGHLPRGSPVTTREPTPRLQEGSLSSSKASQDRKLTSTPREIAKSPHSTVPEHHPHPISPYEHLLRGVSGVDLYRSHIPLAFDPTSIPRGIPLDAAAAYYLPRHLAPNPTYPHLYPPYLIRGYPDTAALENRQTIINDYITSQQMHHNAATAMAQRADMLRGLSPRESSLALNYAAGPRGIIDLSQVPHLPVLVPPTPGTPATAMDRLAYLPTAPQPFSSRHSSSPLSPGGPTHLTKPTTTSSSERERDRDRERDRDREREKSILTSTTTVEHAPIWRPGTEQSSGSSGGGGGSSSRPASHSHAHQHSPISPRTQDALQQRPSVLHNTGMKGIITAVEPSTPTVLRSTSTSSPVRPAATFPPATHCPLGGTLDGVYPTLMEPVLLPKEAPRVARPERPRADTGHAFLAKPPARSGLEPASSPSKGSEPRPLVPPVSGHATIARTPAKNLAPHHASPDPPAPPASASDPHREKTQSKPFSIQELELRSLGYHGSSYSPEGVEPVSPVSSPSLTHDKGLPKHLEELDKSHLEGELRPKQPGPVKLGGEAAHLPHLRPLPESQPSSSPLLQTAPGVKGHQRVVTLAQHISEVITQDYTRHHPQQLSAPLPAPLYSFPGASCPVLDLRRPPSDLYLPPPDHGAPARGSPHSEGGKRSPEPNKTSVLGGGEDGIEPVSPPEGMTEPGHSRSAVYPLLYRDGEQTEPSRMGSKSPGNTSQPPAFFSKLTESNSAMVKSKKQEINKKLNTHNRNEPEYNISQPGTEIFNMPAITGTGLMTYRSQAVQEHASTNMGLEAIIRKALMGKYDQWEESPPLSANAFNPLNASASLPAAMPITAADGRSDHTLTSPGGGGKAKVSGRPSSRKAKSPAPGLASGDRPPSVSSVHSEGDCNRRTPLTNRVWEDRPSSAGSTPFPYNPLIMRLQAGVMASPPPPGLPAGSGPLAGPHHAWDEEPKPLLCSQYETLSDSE

Structure (SMILES)	remaining at 4 h, 100 µM [1] [%]	IC50 697 [nM]	Ratio IC50 [2]	Ratio IC50 [3]	IC50 [4] [nM]	remaining at […], 5 µM [5] [%]	remaining at […], 5 µM [6] [%]	Ratio IC50 [7]	Ratio IC50 [8]	Ratio IC50 [9]	remaining at 4 h, 100 µM [10] [%]	IC50 (PBMC) [nM]	inhibition (INH) (Histone deacetylase)	Ratio IC50 [11]	Ratio IC50 [12]	IC50 [13] [nM]
Cc1cc(-c2nnc(Sc3c(F)cc(C(=O)NO)cc3F)n2C)nn1C	80	> 1000	24	497	6	30	76	294	42	48	92	> 1000	Active	48	19	
Cn1c(Sc2c(F)cc(C(=O)NO)cc2F)nnc1-c1cccc(CN2CCCCCC2)c1	85	> 1000	23	310	10	55	78	169	82	86	91	> 1000	Active	79	41	
NCc1ccc(C(=O)NO)cc1																5000
Nc1ccc(-c2nnn(Cc3c(F)cc(C(=O)NO)cc3F)n2)cc1	77	> 1000	118	138	3	48	74	86	144	162	88	> 1000	Active	325	230	
O=C(NO)c1ccccc1 [BENZOHYDROXAMATE]					2370											71600
